According to patent publication US6214374A, “Compositions, methods and devices for the transdermal delivery of drugs” (priority 1996, dated 2001):
Where two headings read alike, the source gives them in different places.

Legend:
[1] = Transdermal penetration of progesterone: oleic acid, myristic acid and butylurea enhancers; type: in vitro ADME, human
Text: Excised full-thickness human skin was obtained from elective surgery, (e.g., breast reductions) or occasionally, from amputated legs. The tissue was stored in plastic containers at refrigerator temperature until use, at which time the subcutaneous fat and connective tissue were carefully trimmed off. Skin specimen thickness was in the range 1.5-2.0 mm, with characteristic histological features preserved.
Tritium-labeled progesterone was obtained from NEN-DuPont (Wilmington, Del.), with the label at ring positions 1, 2, 6, and 7. It was incorporated in the test compositions in the range 100 to 500 DPM (Disintegration Per Minute) per microgram of progesterone. The labeled progesterone was incorporated at the pre-polymerization stage, i.e., just as water is added to form the hydrogel polymer. Aliquots of the gelling mixtures were added to small amounts of tritiated progesterone in scintillation vials (after the solvent had been evaporated), and stirred briskly with a small spatula. The vials were then tightly capped and stored at room temperature. […]
Rates of transdermal penetration of progesterone were determined for three samples: A-1, A-2, and A-3. […]
Some of the data from these determinations are plotted in FIG. 16, to illustrate how the rates were determined. […]

[2] = Progesterone penetration through a dialysis membrane; type: in vitro ADME
Description: Tritium-labeled progesterone was obtained from NEN-DuPont (Wilmington, Del.), with the label at ring positions 1, 2, 6, and 7. It was incorporated in the test compositions in the range 100 to 500 DPM (Disintegration Per Minute) per microgram of progesterone. The labeled progesterone was incorporated at the pre-polymerization stage, i.e., just as water is added to form the hydrogel polymer. Aliquots of the gelling mixtures were added to small amounts of tritiated progesterone in scintillation vials (after the solvent had been evaporated), and stirred briskly with a small spatula. The vials were then tightly capped and stored at room temperature. Milligram portions of this mixture were then taken from widely-spaced sites from within the vials, rapidly weighed, and dispersed in scintillation cocktail for determination of specific activities.
Transdermal penetration was performed in a single-chamber, solvent-replacement Diffusion Cell, held vertically and inverted (FIG. 13). Half-inch diameter discs of skin to which nylon washers had been cemented with cyanoacrylate were used. The available diffusional area of each skin disc enclosed by the nylon washer was 0.495 cm^2. […]
Thus, penetration of progesterone through a dialysis membrane, which was assumed to be more permeable than the skin, was measured to see how much progesterone could accumulate in the receptor of the diffusion cells. […]

[3] = type: in vitro ADME, human
Description: Transdermal penetration was performed in a single-chamber, solvent-replacement Diffusion Cell, held vertically and inverted (FIG. 13). Half-inch diameter discs of skin to which nylon washers had been cemented with cyanoacrylate were used. The available diffusional area of each skin disc enclosed by the nylon washer was 0.495 cm^2. The cell was assembled from parts of a commercial PVC coupling manufactured by Genova Products, Inc., Davison, Mich. The body of the coupling serves as the receptor chamber. The skin disc (5), kept flat by the nylon washer (6) cemented to its surface, is seated in the bottom end of the chamber, dermal side in contact with the receptor fluid (8). After test material is applied to the skin surface, an O-ring (4) and a flanged PVC washer (2) coated with aluminum foil (3) are positioned under the nylon washer on the skin, and a retaining nut (1) is carefully tightened under all. A small, teflon-covered magnetic stirring button (7) and the receptor fluid are introduced, after which the top end of the coupling is stoppered with another foil-coated flanged washer (9). After assembly, the cell is held in a rack on a magnetic stirrer, in a 32° C. incubator. The magnetic stirring button is used to stir the receptor fluid in the inverted cell, and this button spins in direct contact with the dermal side of the skin. […]

[4] = Intradermal penetration of progesterone by autoradiography
Text: Therefore, an alternative procedure was used to acquire skin surface biopsies (Marks and Dawber, 1971, Brit. J. Dermatol. 85:117-123). Surface biopsies consist of a sheet of the top 2-3 layers of the stratum corneum, which retain vellus hairs on the underside, along with fragments of the pilosebaceous ducts known as "follicular casts" (Lavker and Leyden, 1979, "Lamellar Inclusions in Follicular Horny Cells: A New Aspect of Abnormal Keratinization," J. Ultrastruct. Res. 69: 362-370). These samples are produced by application of a drop of cyanoacrylate adhesive on a microscope slide to the surface of the skin, and after the adhesive sets, the slide with adhering tissue is carefully peeled off.
Discs of skin were prepared as described in "Methods", for measurement of intradermal penetration, but using much larger washers to provide test sites of about 10 cm2 in area. A test formula containing 20% progesterone (Sample Z) was applied, and uptake into the skin was allowed to proceed for one hour, and for 20 hours. Surface residue was removed at the indicated times, using the rinse/wipe procedure described. Skin surface biopsies were taken from 1 & 20-Hr skin discs, and coated with photographic emulsion (Illford K-2 emulsion, Illford, London), then allowed to develop for 14 days. Rinsing and fixing were done as prescribed by the manufacturer.

[5] = cited from earlier work
[6] = cited from earlier work; remark: listed apart in the source
[7] = oral, vaginal or rectal; cited from earlier work
[8] = combination of progesterone and estrogen; cited from earlier work
[9] = in vivo; cited from earlier work

CCCCNC(N)=O [n-butylurea, butylurea]
efficacy in promoting the penetration of progesterone through the skin [1]: clearly the most efficacious of the three

CC(=O)[C@H]1CC[C@H]2[C@@H]3CCC4=CC(=O)CC[C@]4(C)[C@H]3CC[C@]12C [progesterone, pregn-4-ene-3,20-dione]
lag time, dialysis membrane [2]: no lag time
rate of penetration through dialysis membrane ([2]; about 1.5 hours): about 30 μg/cm^2 /Hr
increase of rate after removal of the epidermis [3]: about 2 fold
accumulation in follicles vs stratum corneum, autoradiography [4]: Accumulation in the follicles appeared to be faster than in the stratum corneum
distribution of progesterone in the skin, autoradiography [4]: preferential accumulation of progesterone in the pilosebaceous follicles
distribution depth within the follicle, autoradiography ([4]; 0.2 mm-long follicular fragment): distributed uniformly to this depth within the lipid-rich interior of the follicle
amount penetrated in a 24-hour period ([5]; 24 hours, thin film in vivo, Guy et al.): about 1.2 μg/cm^2
penetration rate reported by Guy et al. ([5]; human skin in vivo): 1.2 μg/cm^2 /day
rate of transdermal penetration in vitro ([6]; 2-pyrrolidone enhancer): 11.4 (+/-4.6) μg/cm^2 /hour
rate of transdermal penetration in vitro ([6]; N-methylformamide enhancer): 12.4 (+/-4.4) μg/cm^2 /hour
rate of transdermal penetration in vitro ([6]; no enhancer, acetone solution): 0.477 μg/cm^2 /hour
half life in the body [7]: about 2.2 hours
mean serum level giving an optimal effect in the treatment of menopause [8]: 2 ng/mL
amount of progesterone in the breast tissue [9]: high amounts
increase in progesterone concentration in breast tissue [9]: five-fold
